Experimental data taken from publication PMC9706486, “INOSITOL (1,3,4) TRIPHOSPHATE 5/6 KINASE1-dependent inositol polyphosphates regulate auxin responses in Arabidopsis” (Plant Physiology, 2022).

target: T1, TIR1–ASK1–IAA7 auxin receptor complex (ASK1–TIR1–Aux/IAA–IAA receptor complex) (Arabidopsis thaliana, UniProt Q570C0); assay: auxin-dependent pull-down of ASK1–TIR1 with [3H]-InsP6 by His8-MBP-IAA7; type: binding; details: 0.1 uM IAA versus no auxin; pH 7.5, 4 °C; read-out is recovered [3H]-InsP6
T1 construct: ASK1–TIR1 co-purified from insect cells; IAA7 ORF as recombinant His8-MBP fusion (pET28-His8-MBP vector); mixed at molar ratio 1:3 (ASK1–TIR1 : IAA7); with SKP1-like protein 1A; Auxin-responsive protein IAA7
T1 sequence (Q570C0 1-594): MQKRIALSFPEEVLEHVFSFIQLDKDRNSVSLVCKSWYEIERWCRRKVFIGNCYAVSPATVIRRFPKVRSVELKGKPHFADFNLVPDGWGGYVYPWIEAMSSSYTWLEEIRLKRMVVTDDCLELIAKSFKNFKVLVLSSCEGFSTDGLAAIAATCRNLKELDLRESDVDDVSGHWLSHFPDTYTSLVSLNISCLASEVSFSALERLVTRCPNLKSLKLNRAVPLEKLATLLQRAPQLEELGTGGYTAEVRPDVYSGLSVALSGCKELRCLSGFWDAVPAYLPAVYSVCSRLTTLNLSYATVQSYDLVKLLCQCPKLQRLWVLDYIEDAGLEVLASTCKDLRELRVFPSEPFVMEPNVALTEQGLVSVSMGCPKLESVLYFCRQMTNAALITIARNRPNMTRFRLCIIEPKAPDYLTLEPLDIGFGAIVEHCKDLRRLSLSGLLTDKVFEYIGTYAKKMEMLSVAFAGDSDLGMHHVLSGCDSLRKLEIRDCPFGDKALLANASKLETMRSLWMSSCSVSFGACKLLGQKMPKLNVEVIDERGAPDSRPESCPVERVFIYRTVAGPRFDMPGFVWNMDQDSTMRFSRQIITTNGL
T1 sequence (Q39255 1-160 partner): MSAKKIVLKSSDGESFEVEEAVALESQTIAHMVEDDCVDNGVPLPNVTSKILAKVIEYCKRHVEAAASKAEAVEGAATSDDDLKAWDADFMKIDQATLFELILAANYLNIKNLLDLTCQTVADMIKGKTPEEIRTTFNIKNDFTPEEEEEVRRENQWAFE
T1 sequence (Q38825 1-243 partner): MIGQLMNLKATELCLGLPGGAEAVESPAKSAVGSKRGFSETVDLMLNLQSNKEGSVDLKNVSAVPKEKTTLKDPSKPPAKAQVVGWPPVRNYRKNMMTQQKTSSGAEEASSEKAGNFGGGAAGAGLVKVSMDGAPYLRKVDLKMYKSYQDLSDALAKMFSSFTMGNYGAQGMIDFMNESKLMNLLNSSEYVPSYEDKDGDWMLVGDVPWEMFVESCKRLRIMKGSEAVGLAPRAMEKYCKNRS

Compound | auxin-dependent pull-down of ASK1-TIR1 with [3H]-InsP6 by His8-MBP-IAA7
O=C(O)Cc1c[nH]c2ccccc12 [IAA] | auxin is critical for the interaction between ASK–TIR1 and Aux/IAA protein

target: T1, TIR1–ASK1–IAA7 auxin receptor complex (ASK1–TIR1–Aux/IAA–IAA receptor complex); assay: competitive radioligand displacement of [3H]-InsP6, Ni-NTA pull-down; type: binding; details: not given

IC50 [nM] | Compound
34 | O=P(O)(O)O[C@H]1[C@@H](OP(=O)(O)O)[C@H](OP(=O)(O)O)[C@@H](O)[C@H](OP(=O)(O)O)[C@H]1OP(=O)(O)O [InsP5 [5-OH]]
114 | O=P(O)(O)O[C@@H]1[C@@H](OP(=O)(O)O)[C@@H](OP(=O)(O)O)[C@@H](O)[C@H](OP(=O)(O)O)[C@H]1OP(=O)(O)O [InsP5 [1-OH]]
31 | O=P(O)(O)O[C@@H]1[C@@H](OP(=O)(O)O)[C@H](OP(=O)(O)O)[C@@H](O)[C@@H](OP(=O)(O)O)[C@H]1OP(=O)(O)O [InsP5 [3-OH]]

The next lines start with the compound.

Compound | IC50 [nM]
O=P(O)(O)O[C@H]1[C@@H](OP(=O)(O)O)[C@H](OP(=O)(O)O)[C@@H](OP(=O)(O)OP(=O)(O)O)[C@H](OP(=O)(O)O)[C@H]1OP(=O)(O)O [5-InsP7] | 20
O=P(O)(O)O[C@H]1[C@H](OP(=O)(O)O)[C@@H](OP(=O)(O)O)[C@H](OP(=O)(O)O)[C@@H](OP(=O)(O)O)[C@H]1OP(=O)(O)O [InsP6] | 19
